The compounds below were run on 817829-284-R-J1-PDC complex spheroids, viability (assay: Anticancer human tumor 817829-284-R-J1-PDC patient-derived colon adenocarcinoma cell line growth inhibition [CLK]). Conditions: second compound 0.0316 µM; first compound 1 µM; active compounds read low.
How it was run: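 Multi-cell-type spheroids combined patient-derived tumor cells with HUVEC endothelial cells and human mesenchymal stem cells. Paired agents were dosed in half-log steps down from about clinical Cmax, or from 10 microM where Cmax was unknown.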
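Further: spheroids exposed to the agents for seven days before readout.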

O=C(c1cc(Cc2n[nH]c(=O)c3ccccc23)ccc1F)N1CCN(C(=O)C2CC2)CC1 + CNC(=O)c1ccc(Nc2nc(OC3CCCC3)c3c(-c4ccc5nc(C)oc5c4)c[nH]c3n2)c(OC)c1 was tested. Which viability, T/C did it give?
Its viability, T/C is 26.7%.

How did the viability, T/C turn out when O=c1[nH]cc(F)c(=O)[nH]1 + CNC(=O)c1ccc(Nc2nc(OC3CCCC3)c3c(-c4ccc5nc(C)oc5c4)c[nH]c3n2)c(OC)c1 was run?
Its viability, T/C is 38.4%.

Same assay, conditions: second compound 0.0316 µM; first compound 3.16 µM; active compounds read low

Nc1ccn(C2OC(CO)C(O)C2(F)F)c(=O)n1 (stereo unspecified) + CNC(=O)c1ccc(Nc2nc(OC3CCCC3)c3c(-c4ccc5nc(C)oc5c4)c[nH]c3n2)c(OC)c1 was tested. Which viability, T/C did it give?
Its viability, T/C is 5.09%.

For O=C(c1cc(Cc2n[nH]c(=O)c3ccccc23)ccc1F)N1CCN(C(=O)C2CC2)CC1 + CNC(=O)c1ccc(Nc2nc(OC3CCCC3)c3c(-c4ccc5nc(C)oc5c4)c[nH]c3n2)c(OC)c1, which viability, T/C is on record?
The viability, T/C was 31.5%.

O=c1[nH]cc(F)c(=O)[nH]1 + CNC(=O)c1ccc(Nc2nc(OC3CCCC3)c3c(-c4ccc5nc(C)oc5c4)c[nH]c3n2)c(OC)c1 was tested. Which viability, T/C did it give?
The viability, T/C was 29.1%.

Same assay, conditions: second compound 0.0316 µM; first compound 10 µM; active compounds read low

Which viability, T/C does the source give for Nc1ccn(C2OC(CO)C(O)C2(F)F)c(=O)n1 (stereo unspecified) + CNC(=O)c1ccc(Nc2nc(OC3CCCC3)c3c(-c4ccc5nc(C)oc5c4)c[nH]c3n2)c(OC)c1 here?
The viability, T/C was 3.92%.

Which viability, T/C does the source give for O=C(c1cc(Cc2n[nH]c(=O)c3ccccc23)ccc1F)N1CCN(C(=O)C2CC2)CC1 + CNC(=O)c1ccc(Nc2nc(OC3CCCC3)c3c(-c4ccc5nc(C)oc5c4)c[nH]c3n2)c(OC)c1 here?
The viability, T/C was 22.4%.

How did the viability, T/C turn out when O=c1[nH]cc(F)c(=O)[nH]1 + CNC(=O)c1ccc(Nc2nc(OC3CCCC3)c3c(-c4ccc5nc(C)oc5c4)c[nH]c3n2)c(OC)c1 was run?
Its viability, T/C is 22.6%.

Same assay, conditions: second compound 0.1 µM; first compound 0.000316 µM; active compounds read low

How did the viability, T/C turn out when Cn1ncnc1[C@H]1c2n[nH]c(=O)c3cc(F)cc(c23)N[C@@H]1c1ccc(F)cc1 + CNC(=O)c1ccc(Nc2nc(OC3CCCC3)c3c(-c4ccc5nc(C)oc5c4)c[nH]c3n2)c(OC)c1 was run?
Its viability, T/C is 20.5%.

Same assay, conditions: second compound 0.1 µM; first compound 0.001 µM; active compounds read low

Cn1ncnc1[C@H]1c2n[nH]c(=O)c3cc(F)cc(c23)N[C@@H]1c1ccc(F)cc1 + CNC(=O)c1ccc(Nc2nc(OC3CCCC3)c3c(-c4ccc5nc(C)oc5c4)c[nH]c3n2)c(OC)c1 was tested. Which viability, T/C did it give?
Its viability, T/C is 21.1%.

Same assay, conditions: second compound 0.1 µM; first compound 0.00316 µM; active compounds read low

For CCc1c2c(nc3ccc(O)cc13)-c1cc3c(c(=O)n1C2)COC(=O)[C@]3(O)CC + CNC(=O)c1ccc(Nc2nc(OC3CCCC3)c3c(-c4ccc5nc(C)oc5c4)c[nH]c3n2)c(OC)c1, which viability, T/C is on record?
The viability, T/C was 21.3%.

With Cn1ncnc1[C@H]1c2n[nH]c(=O)c3cc(F)cc(c23)N[C@@H]1c1ccc(F)cc1 + CNC(=O)c1ccc(Nc2nc(OC3CCCC3)c3c(-c4ccc5nc(C)oc5c4)c[nH]c3n2)c(OC)c1 as the compound, how does the viability, T/C read?
Its viability, T/C is 24.7%.

Same assay, conditions: second compound 0.1 µM; first compound 0.01 µM; active compounds read low

CCc1c2c(nc3ccc(O)cc13)-c1cc3c(c(=O)n1C2)COC(=O)[C@]3(O)CC + CNC(=O)c1ccc(Nc2nc(OC3CCCC3)c3c(-c4ccc5nc(C)oc5c4)c[nH]c3n2)c(OC)c1 was tested. Which viability, T/C did it give?
Its viability, T/C is 17.2%.

With Cn1ncnc1[C@H]1c2n[nH]c(=O)c3cc(F)cc(c23)N[C@@H]1c1ccc(F)cc1 + CNC(=O)c1ccc(Nc2nc(OC3CCCC3)c3c(-c4ccc5nc(C)oc5c4)c[nH]c3n2)c(OC)c1 as the compound, how does the viability, T/C read?
The viability, T/C was 23.5%.

Same assay, conditions: second compound 0.1 µM; first compound 0.0316 µM; active compounds read low

For CCc1c2c(nc3ccc(O)cc13)-c1cc3c(c(=O)n1C2)COC(=O)[C@]3(O)CC + CNC(=O)c1ccc(Nc2nc(OC3CCCC3)c3c(-c4ccc5nc(C)oc5c4)c[nH]c3n2)c(OC)c1, which viability, T/C is on record?
Its viability, T/C is 13.2%.

How did the viability, T/C turn out when Cn1ncnc1[C@H]1c2n[nH]c(=O)c3cc(F)cc(c23)N[C@@H]1c1ccc(F)cc1 + CNC(=O)c1ccc(Nc2nc(OC3CCCC3)c3c(-c4ccc5nc(C)oc5c4)c[nH]c3n2)c(OC)c1 was run?
Its viability, T/C is 22.3%.

With Nc1ccn(C2OC(CO)C(O)C2(F)F)c(=O)n1 (stereo unspecified) + CNC(=O)c1ccc(Nc2nc(OC3CCCC3)c3c(-c4ccc5nc(C)oc5c4)c[nH]c3n2)c(OC)c1 as the compound, how does the viability, T/C read?
The viability, T/C was 8.05%.

Which viability, T/C does the source give for O=C(c1cc(Cc2n[nH]c(=O)c3ccccc23)ccc1F)N1CCN(C(=O)C2CC2)CC1 + CNC(=O)c1ccc(Nc2nc(OC3CCCC3)c3c(-c4ccc5nc(C)oc5c4)c[nH]c3n2)c(OC)c1 here?
The viability, T/C was 24.2%.

How did the viability, T/C turn out when O=c1[nH]cc(F)c(=O)[nH]1 + CNC(=O)c1ccc(Nc2nc(OC3CCCC3)c3c(-c4ccc5nc(C)oc5c4)c[nH]c3n2)c(OC)c1 was run?
The viability, T/C was 19.2%.

Same assay, conditions: second compound 0.1 µM; first compound 0.1 µM; active compounds read low

Which viability, T/C does the source give for CCc1c2c(nc3ccc(O)cc13)-c1cc3c(c(=O)n1C2)COC(=O)[C@]3(O)CC + CNC(=O)c1ccc(Nc2nc(OC3CCCC3)c3c(-c4ccc5nc(C)oc5c4)c[nH]c3n2)c(OC)c1 here?
The viability, T/C was 9.71%.

Which viability, T/C does the source give for Cn1ncnc1[C@H]1c2n[nH]c(=O)c3cc(F)cc(c23)N[C@@H]1c1ccc(F)cc1 + CNC(=O)c1ccc(Nc2nc(OC3CCCC3)c3c(-c4ccc5nc(C)oc5c4)c[nH]c3n2)c(OC)c1 here?
The viability, T/C was 18.2%.

Which viability, T/C does the source give for Nc1ccn(C2OC(CO)C(O)C2(F)F)c(=O)n1 (stereo unspecified) + CNC(=O)c1ccc(Nc2nc(OC3CCCC3)c3c(-c4ccc5nc(C)oc5c4)c[nH]c3n2)c(OC)c1 here?
Its viability, T/C is 6.31%.

How did the viability, T/C turn out when O=C(c1cc(Cc2n[nH]c(=O)c3ccccc23)ccc1F)N1CCN(C(=O)C2CC2)CC1 + CNC(=O)c1ccc(Nc2nc(OC3CCCC3)c3c(-c4ccc5nc(C)oc5c4)c[nH]c3n2)c(OC)c1 was run?
The viability, T/C was 19.2%.

For O=c1[nH]cc(F)c(=O)[nH]1 + CNC(=O)c1ccc(Nc2nc(OC3CCCC3)c3c(-c4ccc5nc(C)oc5c4)c[nH]c3n2)c(OC)c1, which viability, T/C is on record?
Its viability, T/C is 24%.

Same assay, conditions: second compound 0.1 µM; first compound 0.316 µM; active compounds read low

For CCc1c2c(nc3ccc(O)cc13)-c1cc3c(c(=O)n1C2)COC(=O)[C@]3(O)CC + CNC(=O)c1ccc(Nc2nc(OC3CCCC3)c3c(-c4ccc5nc(C)oc5c4)c[nH]c3n2)c(OC)c1, which viability, T/C is on record?
Its viability, T/C is 7.28%.

Nc1ccn(C2OC(CO)C(O)C2(F)F)c(=O)n1 (stereo unspecified) + CNC(=O)c1ccc(Nc2nc(OC3CCCC3)c3c(-c4ccc5nc(C)oc5c4)c[nH]c3n2)c(OC)c1 was tested. Which viability, T/C did it give?
Its viability, T/C is 5.97%.
